Data published in patent US9499509B2, “Dihydrochalcone derivatives and their use as antibiotic agents” (UNIVERSITÉ DU QUÉBEC À CHICOUTIMI, priority 2012, dated 2016).
Values after ≈ are worked out from the molar mass of the structure shown. Structures can show the parent of a compound that is named as a salt. Where two headings read alike, the source gives them in different places.

Tested on: S. aureus
Test: Antibiotic assay (resazurin, Example 1), S. aureus strains of Table 3
Format: cell-based, Staphylococcus aureus
Text: Bacteria Strain. […] The MRSA were obtained as further described below.
Antibiotic agents. Cyprofloxacin and erythromycin were provided by Sigma-Aldrich. Gentamicin sulfate and vancomycin hydrochloride were provided by Calbiochem.

[1] = S. aureus 14108, read-out: IC50
[2] = S. aureus 14118, read-out: IC50
[3] = S. aureus 14154, read-out: IC50
[4] = S. aureus 14094, read-out: IC50

SMILES	IC50 [1] [µM]	IC50 [2] [µM]	IC50 [3] [µM]	Minimum Inhibitory Concentration (MIC) (S. aureus 14094)	IC50 [4] [µM]	Minimum Inhibitory Concentration (MIC) (S. aureus 14108)	Minimum Inhibitory Concentration (MIC) (S. aureus 14118)	Minimum Inhibitory Concentration (MIC) (S. aureus 14154)	further results
O=C(O)c1cn(C2CC2)c2cc(N3CCNCC3)c(F)cc2c1=O [Ciprofloxacin, reference compound]	< 1.56	< 1.56	< 1.56	–	–	–	–	–	IC50 (Staphylococcus aureus, S. aureus 14094, read-out: IC50): < 1.56 µM; MIC (Staphylococcus aureus, S. aureus 14094, read-out: Minimum Inhibitory Concentration (MIC)): 87.6 µM (≈ 29 µg/mL); MIC (Staphylococcus aureus, S. aureus 14108, read-out: Minimum Inhibitory Concentration (MIC)): 66.8 µM (≈ 22.1 µg/mL); MIC (Staphylococcus aureus, S. aureus 14118, read-out: Minimum Inhibitory Concentration (MIC)): 65.1 µM (≈ 21.6 µg/mL); MIC (Staphylococcus aureus, S. aureus 14154, read-out: Minimum Inhibitory Concentration (MIC)): 25.1 µM (≈ 8.32 µg/mL)
O=C(CCc1ccccc1)c1c(O)cc(O)c(C/C=C/c2ccc(O)cc2)c1O [Compound III]	2.7 ± 0.2	2.3 ± 0.1	1.5 ± 0.1	(5.5) μM	2.4 ± 0.2	(5.25) μM	(3.46) μM	(4.95) μM	–
COc1ccc(CCC(=O)c2c(O)cc(O)c(C/C=C/c3ccc(O)cc3)c2O)cc1 [Compound II]	3.3 ± 0.2	–	2 ± 0.1	(6.2) μM	3.5 ± 0.3	(6.81) μM	(5.05) μM	(4.88) μM	–
COc1cc(O)c(C(=O)CCc2ccc(O)cc2)c(O)c1C/C=C/c1ccc(O)cc1 [Compound I]	2.7 ± 0.3	3.5 ± 0.1	2.3 ± 0.1	(6.54) μM	3.5 ± 0.3	(8.73) μM	(5.27) μM	(4.37) μM	–
CN[C@H](CC(C)C)C(=O)N[C@H]1C(=O)N[C@@H](CC(N)=O)C(=O)N[C@H]2C(=O)N[C@H]3C(=O)N[C@H](C(=O)N[C@H](C(=O)O)c4cc(O)cc(O)c4-c4cc3ccc4O)[C@H](O)c3ccc(c(Cl)c3)Oc3cc2cc(c3O[C@@H]2O[C@H](CO)[C@@H](O)[C@H](O)[C@H]2O[C@H]2C[C@](C)(N)[C@H](O)[C@H](C)O2)Oc2ccc(cc2Cl)[C@H]1O [Vancomycin, vancomycin hydrochloride, reference compound]	–	–	–	–	–	–	–	–	IC50 (Staphylococcus aureus, S. aureus 14094): 0.28 ± 0.04 µM; IC50 (Staphylococcus aureus, S. aureus 14108): 0.27 ± 0.04 µM; IC50 (Staphylococcus aureus, S. aureus 14118): 0.24 ± 0.03 µM; IC50 (Staphylococcus aureus, S. aureus 14154): 0.28 ± 0.05 µM; MIC (Staphylococcus aureus, read-out: Minimum Inhibitory Concentration (MIC), S. aureus 14094): 0.41 µM; MIC (Staphylococcus aureus, read-out: Minimum Inhibitory Concentration (MIC), S. aureus 14108): 0.44 µM; MIC (Staphylococcus aureus, read-out: Minimum Inhibitory Concentration (MIC), S. aureus 14118): 0.38 µM; MIC (Staphylococcus aureus, read-out: Minimum Inhibitory Concentration (MIC), S. aureus 14154): 0.45 µM
